In patent US5260447A, “Polyhydroxycyclopentane derivatives, their preparation and their therapeutic use” (Sankyo Company, Limited, priority 1992, dated 1993):

What was measured:
[1] = Solubility; type: physicochemical
[2] = biological target: β-glucosidase; test: Inhibitory activity against β-glucosidase (p-nitrophenyl-β-D-glucopyranoside hydrolysis, absorbance at 405 nm); type: biochemical; settings: pH 5.6, 37° C., 15 min preincubation, 20 min reaction; enzyme from almonds
Excerpt: Inhibitory activity of 5-amino-1-(hydroxymethyl)cyclopentane-1,2,3,4-tetraol against β-glucosidase
Samples of β-glucosidase (separated from almonds), p-nitrophenyl-β-D-glucopyranoside, deoxynojirimycin and castanospermine used in this experiment were all purchased from Sigma Chemicals Co.
The test compounds used were 5-amino-1-(hydroxymethyl)cyclopentane-1,2,3,4-tetraol [compound (I)], and deoxynojirimycin or castanospermine, both of which are known compounds having this type of activity.
A mixture of 0.01 unit/ml of β-glucosidase and 100 μl of a buffer solution (pH 5.6) comprising 20 mM of citric acid, 40 mM of disodium phosphate and the compound under test was allowed to stand at 37° C. for 15 minutes. At the end of this time, 50 μl of a buffer solution containing 3 mg/ml of p-nitrophenyl-β-D-glucopyranoside were added to the mixture, which was then allowed to react at 37° C. for 20 minutes. 20 μl of a 1M glycine/sodium hydroxide buffer solution (pH 10.4) were added to the reaction mixture, and the quantity of p-nitrophenol liberated was monitored by absorbance at 405 nm. Table 7 lists the concentrations β-glucosidase by 50% (IC50).

[3] = biological target: T1, silkworm trehalase (Bombyx mori, UniProt P32358); test: Inhibitory activity against silkworm trehalase (crude enzyme from silkworm larvae, glucose determination); type: biochemical; settings: pH 5.6, 37° C., 15 min preincubation, 15 min reaction; substrate trehalose; read-out: concentration needed to inhibit the enzyme activity by 50% (IC50), silkworm trehalase (converted)
T1 construct: Ten silkworm larvae of the fifth instar (total weight 44 g) were homogenized; from tissue; host or cells: whole silkworm larvae, fifth instar; acetone precipitate of homogenate supernatant
T1 sequence (P32358 16-579): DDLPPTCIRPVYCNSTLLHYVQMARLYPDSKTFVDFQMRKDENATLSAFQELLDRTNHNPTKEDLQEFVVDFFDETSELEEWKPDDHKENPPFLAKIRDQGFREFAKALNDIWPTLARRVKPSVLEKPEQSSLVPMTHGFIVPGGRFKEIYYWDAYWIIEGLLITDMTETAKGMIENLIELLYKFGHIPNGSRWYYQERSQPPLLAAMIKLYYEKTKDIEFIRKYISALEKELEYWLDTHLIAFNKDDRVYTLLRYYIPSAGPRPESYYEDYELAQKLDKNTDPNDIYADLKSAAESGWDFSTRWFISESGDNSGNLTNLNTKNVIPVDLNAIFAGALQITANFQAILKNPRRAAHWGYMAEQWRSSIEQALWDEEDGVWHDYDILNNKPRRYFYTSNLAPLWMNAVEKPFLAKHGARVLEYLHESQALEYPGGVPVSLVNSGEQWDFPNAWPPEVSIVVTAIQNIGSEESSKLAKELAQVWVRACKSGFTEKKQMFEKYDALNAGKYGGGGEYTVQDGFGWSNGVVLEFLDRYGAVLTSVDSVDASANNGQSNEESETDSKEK
Procedure: Inhibitory activity of trehazolin against silkworm trehalase
Ten silkworm larvae of the fifth instar (total weight 44 g) were homogenized using a Polytrone (trade mark) homogenizer in 120 ml of a buffer solution (pH 5.6) prepared using 20 mM of citric acid and 40 mM of disodium phosphate for 2 minutes, whilst ice-cooling (the same buffer solution was also used hereafter). The homogenized mixture was then centrifuged at a speed of 6,000 rpm for 10 minutes, and the supernatant was separated. 240 ml of acetone were added to 120 ml of the supernatant, whist ice-cooling and stirring, and the resulting mixture was centrifuged at a speed of 9,000 rpm for 20 minutes. The sediment was separated and dissolved in water, and the resulting solution was lyophilized, to give 2.0 g of the crude enzyme.
130 μl of the above buffer solution, 50 μl of a sample solution containing trehazolin at various concentrations and 50 μl of a silkworm enzyme solution prepared as described above and containing 4 mg/ml of the enzyme were placed in a test-tube, and the mixture was shaken on a water bath kept at 37° C. for 15 minutes. […]
The reaction was conducted using glucose C-test Wako (a product of Wako Pure Chemical Industries Ltd.) and 10-fold quantities of the sample solution over that of the standard procedure.

[4] = biological target: T2, rat sucrase (Rattus norvegicus, UniProt P23739); test: Inhibitory activity against rat sucrase (brush border membrane enzyme of rat small intestine, glucose liberated at 492 nm); type: biochemical, rat (Wistar strain); settings: pH 6.2, 37°, 20 minutes; substrate sucrose; read-out: concentration required to inhibit the activity of rat sucrase by 50% (IC50) (converted)
T2 construct: a brush border membrane enzyme solution of a rat small intestine was prepared from the small intestines; from tissue; host or cells: small intestine brush border membrane, male Wistar rats
Procedure: Inhibitory activity of 2-amino-4-(hydroxymethyl)-3a-5,6,6a-tetrahydro-4H-cyclopent[d]oxazole-4,5,6-triol [compound (II)] against rat sucrase
According to the method of M. Kessler et al. Biochimica et Biophysica Acta, 506, 136-154(1978)], a brush border membrane enzyme solution of a rat small intestine was prepared from the small intestines of three male rats of the Wistar strain and suspended in 3 ml of physiological saline.
A sample of 4-aminoantipyrine (A 4382) was purchased from Sigma Chemical Co., and samples of peroxidase (Grade I) and glucose oxidase (Grade I) were purchased from Boehringer Mannheim Co. A buffer solution (pH 6.2) comprising 20 mM of citric acid and 40 mM of disodium phosphate was used as the diluent in the following experiment.
Each well of a micro-titer plate with 96 wells (a product of Falcon Co.) was filled with 130 μl in all of a mixture which contained 0.2 mg of bovine serum albumin (Sigma, A 7906), 3 units of glucose oxidase, 0.132 unit of peroxidase, 20 μg of 4-aminoantipyrine, 40 μg of phenol, 3 μ mole of sucrose and a test compound. To the well were added 20 μl of 100-fold diluted solution of a brush border membrane enzyme solution of rat small intestine. The mixture was allowed to react at 37° for 20 minutes and the quantity of glucose liberated was monitored by absorbance at 492 nm. […]

T2 sequence (P23739 1014-1841 limits assumed): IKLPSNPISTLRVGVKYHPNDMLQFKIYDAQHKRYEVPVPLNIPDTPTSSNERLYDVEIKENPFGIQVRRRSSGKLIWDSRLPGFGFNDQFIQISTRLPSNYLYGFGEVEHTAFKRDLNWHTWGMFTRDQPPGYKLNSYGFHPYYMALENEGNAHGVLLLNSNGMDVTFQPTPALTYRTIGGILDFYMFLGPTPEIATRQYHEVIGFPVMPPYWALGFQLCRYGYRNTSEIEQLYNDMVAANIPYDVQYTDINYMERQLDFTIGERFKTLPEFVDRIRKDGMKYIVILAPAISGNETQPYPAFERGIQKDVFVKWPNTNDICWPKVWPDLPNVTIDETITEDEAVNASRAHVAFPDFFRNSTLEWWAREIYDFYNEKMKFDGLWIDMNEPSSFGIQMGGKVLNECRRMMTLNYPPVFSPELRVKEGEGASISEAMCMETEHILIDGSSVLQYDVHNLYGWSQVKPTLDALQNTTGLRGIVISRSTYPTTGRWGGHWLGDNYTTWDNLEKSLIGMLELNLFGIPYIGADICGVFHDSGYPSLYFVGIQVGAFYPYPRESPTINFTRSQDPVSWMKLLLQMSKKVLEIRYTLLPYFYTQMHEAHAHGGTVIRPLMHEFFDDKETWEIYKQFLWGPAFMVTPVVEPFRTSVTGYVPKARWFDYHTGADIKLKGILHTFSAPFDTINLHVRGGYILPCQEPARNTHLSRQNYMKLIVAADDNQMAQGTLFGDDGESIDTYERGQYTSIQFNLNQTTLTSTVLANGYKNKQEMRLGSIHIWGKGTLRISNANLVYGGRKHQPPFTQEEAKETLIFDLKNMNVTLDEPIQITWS
T2 sequence (P23739 1-1013 partner limits assumed): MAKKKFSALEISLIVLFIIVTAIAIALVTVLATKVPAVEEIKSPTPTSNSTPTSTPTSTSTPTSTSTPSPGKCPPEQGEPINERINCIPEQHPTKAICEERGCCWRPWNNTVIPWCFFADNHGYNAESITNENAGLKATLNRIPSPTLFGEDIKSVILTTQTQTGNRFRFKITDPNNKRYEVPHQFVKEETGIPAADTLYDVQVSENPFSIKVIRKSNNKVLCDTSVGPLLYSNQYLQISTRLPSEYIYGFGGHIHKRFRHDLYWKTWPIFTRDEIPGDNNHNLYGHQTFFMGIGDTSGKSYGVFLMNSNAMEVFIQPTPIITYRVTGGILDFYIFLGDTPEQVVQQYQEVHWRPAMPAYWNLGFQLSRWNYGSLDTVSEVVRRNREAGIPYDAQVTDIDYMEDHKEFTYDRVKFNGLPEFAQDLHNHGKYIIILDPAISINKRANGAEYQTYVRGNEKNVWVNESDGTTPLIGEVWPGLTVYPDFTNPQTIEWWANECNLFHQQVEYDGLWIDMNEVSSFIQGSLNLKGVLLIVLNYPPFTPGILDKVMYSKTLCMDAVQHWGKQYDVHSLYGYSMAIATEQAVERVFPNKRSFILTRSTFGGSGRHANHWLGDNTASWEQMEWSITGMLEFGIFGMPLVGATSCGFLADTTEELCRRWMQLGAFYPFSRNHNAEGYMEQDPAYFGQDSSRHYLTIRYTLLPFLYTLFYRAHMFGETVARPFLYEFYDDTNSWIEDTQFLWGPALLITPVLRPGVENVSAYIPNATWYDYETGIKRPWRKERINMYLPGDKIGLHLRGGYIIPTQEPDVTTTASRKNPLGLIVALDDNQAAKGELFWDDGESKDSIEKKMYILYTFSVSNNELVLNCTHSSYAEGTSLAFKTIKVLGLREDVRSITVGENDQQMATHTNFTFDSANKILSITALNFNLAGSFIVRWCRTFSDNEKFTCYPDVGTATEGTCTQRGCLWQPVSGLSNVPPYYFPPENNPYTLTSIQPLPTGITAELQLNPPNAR

SMILES	Solubility in acetone [1]	Solubility in chloroform [1]	Solubility in water [1]	50% inhibitory concentration of β-glucosidase (IC50) [2] [µg/mL]	IC50 [4] [µM]	Solubility in methanol ([1]; methanol)	IC50 [3] [µM]
O[C@H]1[C@H](O)[C@@H](O)CN2CC[C@H](O)[C@H]12 [Castanospermine, castanospermine]				4.3			
OCC1OC(NC2=NC3C(O2)C(O)C(O)C3(O)CO)C(O)C(O)C1O (stereo not drawn) [trehazolin, reference compound]	insoluble	insoluble	soluble			soluble	0.00546
NC1=NC2C(O1)C(O)C(O)C2(O)CO (stereo not drawn) [(II), 2-amino-4-(hydroxymethyl)-3a,5,6,6a-tetrahydro-4H-cyclopent[d]oxazole-4,5,6-triol]	insoluble	insoluble	soluble		88.2		

Further lines, with some results ahead:

Solubility in acetone [1]	Solubility in chloroform [1]	Solubility in water [1]	50% inhibitory concentration of β-glucosidase (IC50) [2] [µg/mL]	IC50 [4] [µM]	SMILES	Solubility in methanol ([1]; methanol)	IC50 [3] [µM]
insoluble	insoluble	soluble	1.0		NC1C(O)C(O)C(O)C1(O)CO (stereo not drawn) [Compound (I), 5-amino-1-(hydroxymethyl)cyclopentane-1,2,3,4-tetraol]		
			15		OC[C@H]1NC[C@H](O)[C@@H](O)[C@@H]1O [Deoxynojirimycin, deoxynojirimycin]		
